Data set [1] can be described thus: Drug toxicity: body weights and complete blood counts in tumor-bearing mice. The class given is in vivo. As to conditions: MV4-11 model, NSG mice, Fig. S4D.
Another data set deals with CT26.CL25 cells. As to the kind of experiment: CT26.CL25 colon cancer model in B6 mice with/without CD8 depletion. Type of data set: in vivo. The conditions noted are these: CT26.CL25 s.c. in B6 mice, MC180295 20 mg/kg i.p. q.o.d., DAC 0.5 mg/kg i.p. daily. The method, then: Fig. 5 Survival and antitumor effects of MC180295, DAC, or their combination, with/without CD8 + T cells. A 20 mg/kg MC180295 was administered (i.p.) q.o.d. 0.5 mg/kg DAC was administered (i.p.) daily. Mouse survival in days. B Survival of B6 mice, after CD8 depletion, using an anti-CD8 antibody. 20 mg/kg MC180295 was administered (i.p.) q.o.d. 0.5 mg/kg DAC was administered (i.p.) daily. C Antitumor effects of MC180295 with and without CD8 depletion, using an anti-CD8 antibody. B6 mice were inoculated (s.c.) with 5 × 10^5 CT26.CL25 cells. Eight days later, when tumors were palpable, 20 mg/kg MC180295 was administered (i.p.) q.o.d. 0.5 mg/kg DAC was administered (i.p.) daily. Tumor sizes were measured using a caliper and calculated over vehicle. D Antitumor effects of DAC, with and without CD8 depletion, using an anti-CD8 antibody. B6 mice were inoculated (s.c.) with 5 × 10^5 CT26.CL25 cells. Eight days later, when tumors were palpable, 20 mg/kg MC180295 was administered (i.p.) q.o.d. 0.5 mg/kg DAC was administered (i.p.) daily. Tumor sizes were measured using a caliper and calculated over vehicle. E Antitumor effects of DAC + MC180295, with and without CD8 depletion, using an anti-CD8 antibody. B6 mice were inoculated (s.c.) with 5 × 10^5 CT26.CL25 cells. Eight days later, when tumors were palpable, 20 mg/kg MC180295 was administered (i.p.) q.o.d. 0.5 mg/kg DAC was administered (i.p.) daily. Tumor sizes were measured using a caliper and calculated over vehicle. Significances were calculated using log-rank (Mantel-Cox) or Student's T tests. Data shown as means ± SEMs
For the s.c. SW48 model, 2 × 10^6 cells were injected into the flanks of randomly assigned, gender-matched 8–10-week-old NSG mice. 20 mg/kg MC180379, MC180380, or MC180295 was injected (i.p.), every other day, when the tumors were palpable, 11 days after engraftment, until endpoints were met. Mice were sacrificed before tumor volumes exceeded 400 mm^2 (endpoint for this model). For the s.c. HT29 model, 2 × 10^6 cells were injected into the flanks of randomly assigned, gender-matched, 8–10-week-old NSG mice. […]

Another data set has as its system MV4-11-luc cells. Nature of the data set: MV4-11-luc AML model in NSG mice. The conditions noted are these: MV4-11-luc in NSG mice, 0.5 mg/kg DAC i.p. daily alone.
Another data set addresses T1, CDK9 (Homo sapiens, UniProt P50750).
T1 construct: purchased Reaction Biology Corp
Also noted: method as in PMID 26083714. As to conditions: cited from earlier work.

T1 sequence (P50750 whole entry): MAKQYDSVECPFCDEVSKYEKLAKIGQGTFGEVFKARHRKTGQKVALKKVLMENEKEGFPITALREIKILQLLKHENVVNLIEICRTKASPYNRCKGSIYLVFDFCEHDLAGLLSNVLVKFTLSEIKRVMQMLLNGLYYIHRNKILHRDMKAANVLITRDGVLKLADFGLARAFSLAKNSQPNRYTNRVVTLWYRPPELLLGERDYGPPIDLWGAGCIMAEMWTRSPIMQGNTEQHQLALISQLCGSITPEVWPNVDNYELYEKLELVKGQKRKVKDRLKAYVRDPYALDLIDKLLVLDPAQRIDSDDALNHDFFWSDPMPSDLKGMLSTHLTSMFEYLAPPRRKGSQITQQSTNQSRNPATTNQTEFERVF
T1 sequence (O60563 whole entry partner): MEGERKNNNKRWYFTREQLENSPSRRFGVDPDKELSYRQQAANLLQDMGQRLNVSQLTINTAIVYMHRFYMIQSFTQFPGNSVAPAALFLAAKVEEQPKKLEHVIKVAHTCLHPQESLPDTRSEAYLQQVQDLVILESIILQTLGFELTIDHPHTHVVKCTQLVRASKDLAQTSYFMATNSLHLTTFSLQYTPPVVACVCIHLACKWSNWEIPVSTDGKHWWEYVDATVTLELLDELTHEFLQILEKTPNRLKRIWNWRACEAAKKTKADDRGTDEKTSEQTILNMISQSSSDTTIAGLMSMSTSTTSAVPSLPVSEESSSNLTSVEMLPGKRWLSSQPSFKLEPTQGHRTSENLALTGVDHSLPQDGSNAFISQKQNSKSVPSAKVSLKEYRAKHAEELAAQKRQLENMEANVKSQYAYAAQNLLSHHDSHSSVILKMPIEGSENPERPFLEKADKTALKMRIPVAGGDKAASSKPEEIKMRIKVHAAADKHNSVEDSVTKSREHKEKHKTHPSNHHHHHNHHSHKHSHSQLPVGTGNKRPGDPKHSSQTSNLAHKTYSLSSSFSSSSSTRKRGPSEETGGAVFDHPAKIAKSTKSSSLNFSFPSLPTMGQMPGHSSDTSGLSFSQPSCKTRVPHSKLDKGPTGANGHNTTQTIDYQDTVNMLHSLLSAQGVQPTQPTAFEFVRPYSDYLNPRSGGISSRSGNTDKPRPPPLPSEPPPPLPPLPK
Protocol for MV4-11-luc cells: E NSG mice were inoculated (i.p.) with 5 × 10^5 MV4-11-luc cells. Four days later, when substantial tumor burden was evident by bioluminescence imaging, MC180379, MC180380, or vehicle were administered (i.p.) q.o.d at 20 mg/kg. Luciferase expression was quantified and calculated. F Mouse survival in days. […] Significances were calculated using log-rank (Mantel-Cox) or Student’s t tests.
0.5 mg/kg DAC was administered (i.p.) daily. […] B Mouse survival in days. 20 mg/kg MC180295 was administered (i.p.) q.o.d. 0.5 mg/kg DAC was administered (i.p.) daily. C NSG mice were inoculated (i.p.) with 5 × 10^5 MV4-11-luc cells. Four days later, when substantial tumor burden was evident by bioluminescence imaging, MC180295 (20 mg/kg) or vehicle were administered (i.p.) every other day. 0.5 mg/kg DAC was administered (i.p.) daily. Luciferase expression was quantified and calculated. […] 0.5 mg/kg DAC was administered (i.p.) daily. Mouse survival shown in days. Significances were calculated using log-rank (Mantel-Cox) or Student's t tests. Data are shown as means ± SEMs. ***p < 0.001
Both female and male NOD.Cg-Prkdcscid Il2rgtm1Wjl/SzJ (NSG) mice were used for the experiments. Age- and gender-matched mice were randomly assigned to each group. 8–10-week-old NSG mice were tail vein-injected with 5 × 10^5 MV4-11-luc cells. […] Natural death or accumulation of ascites fluid were used as endpoints.

On to `Nc1ncn([C@H]2C[C@H](O)[C@@H](CO)O2)c(=O)n1` [DAC, decitabine, reference compound], for which the body weights entry in data set [1] is “did not affect NSG mouse body weights”. Also, in the data set with CT26.CL25 cells, the tumor size entry is listed as “significantly decrease tumor size, in a CD8 + T cell-dependent manner”. In the data set on MV4-11-luc cells, the survival entry is listed as “did not show consistent tumor suppression or a survival benefit” and the “tumor suppression (luciferase)” value is reported as “did not show consistent tumor suppression”.
For `NC1CCC(Nc2cc(-c3cccc(NCc4cccc(F)c4)n3)c(Cl)cn2)CC1` (centres unmarked) [iCDK9], the “selectivity toward CDK9, compared to CDKs 1, 2, 4, 7, and 8” value at CDK9 is “more than 600 fold”.
